From patent publication US9505769B2 (ASCENEURON SA, priority 2013, dated 2016)
Where a name gives a salt, the structure may show the parent alone.

Each compound was assayed against T1, human muscarinic acetylcholine M1 receptor (Homo sapiens, UniProt P11229) (assay: M1 PAM Assay (IP-One HTRF, IP1 accumulation in M1-CHO cells)). Conditions: not given.
T1 construct: expressed in transfected cells; host or cells: CHO-K1
T1 sequence (P11229 1-460): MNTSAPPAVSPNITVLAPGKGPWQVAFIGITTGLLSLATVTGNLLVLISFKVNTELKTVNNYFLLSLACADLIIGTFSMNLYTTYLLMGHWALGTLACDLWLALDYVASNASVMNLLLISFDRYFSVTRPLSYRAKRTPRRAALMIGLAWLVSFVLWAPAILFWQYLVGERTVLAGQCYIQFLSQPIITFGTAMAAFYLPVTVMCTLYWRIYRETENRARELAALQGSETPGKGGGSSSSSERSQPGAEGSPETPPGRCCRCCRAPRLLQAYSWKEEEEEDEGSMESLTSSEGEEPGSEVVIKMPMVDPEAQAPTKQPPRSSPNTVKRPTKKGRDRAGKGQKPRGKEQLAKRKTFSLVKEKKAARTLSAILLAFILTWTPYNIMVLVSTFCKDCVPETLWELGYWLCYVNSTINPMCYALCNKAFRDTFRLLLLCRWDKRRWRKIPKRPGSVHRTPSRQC
Assay type: cell-based
Method: Then diluted compounds (0.6% DMSO final concentration) are added together with EC20 of acetylcholine and incubated with the cells for 30 min at 37° C., 5% CO2.
CHO-K1 cells stably transfected with human muscarinic acetylcholine M1 receptor are cultured in Ham's F12 medium containing 10% heat inactivated fetal calf serum, 2 mM L-glutamine and Penicillin-Streptomycin grown in a humidified atmosphere at 5% CO2/95% air at 37° C.
`Cc1nc2c3c(nn2c(C)c1Cl)CN(C(=O)c1ccc(F)cc1O[C@H]1C[C@H]2CCC[C@@H](C1)N2C)C3` [Example 58, (3-chloro-2,4-dimethyl-7H-pyrrolo[3′,4′:3,4]pyrazolo[1,5-a]pyrimidin-8(9H)-yl)(4-fluoro-2-{[(3-endo)-9-methyl-9-azabicyclo[3.2.1]nonan-3-yl]oxy}phenyl)methanone] showed an EC50 of 200 to 1000 nM. For `CCN1[C@@H]2CC[C@H]1C[C@@H](Oc1cc(F)ccc1C(=O)N1Cc3nn4cc(Cl)cnc4c3C1)C2` [Example 63, (3-chloro-7H-pyrrolo[3′,4′:3,4]pyrazolo[1,5-a]pyrimidin-8(9H)-yl)(2-{[(3-endo)-8-ethyl-8-azabicyclo[3.2.1]oct-3-yl]oxy}-4-fluorophenyl)methanone], the EC50 was less than 200 nM. For `O=C(c1ccc(F)cc1O[C@H]1C[C@H]2CC[C@@H](C1)N2CCO)N1Cc2nn3cc(Cl)cnc3c2C1` (single isomer, unassigned) [Example 50, (3-chloro-7H-pyrrolo[3′,4′:3,4]pyrazolo[1,5-a]pyrimidin-8(9H)-yl)(4-fluoro-2-{[(3-endo)-8-(2-hydroxyethyl)-8-azabicyclo[3.2.1]oct-3-yl]oxy}phenyl)methanone], the EC50 was 200 to 1000 nM.

Same assay, conditions: CHO-K1 cells stably transfected with human M1 receptor; compounds added with EC20 of acetylcholine (25 nM), 30 min; intracellular IP1 by IP-One HTRF; read-out: M1 PAM EC50
`Cc1nc2c3c(nn2c(C)c1Cl)CN(C(=O)c1ccc(F)cc1O[C@@H]1CCN[C@@H](C)C1)C3` (stereo in doubt) [Example 24, (3-chloro-2,4-dimethyl-7H-pyrrolo[3′,4′:3,4]pyrazolo[1,5-a]pyrimidin-8(9H)-yl)(4-fluoro-2-((2-methylpiperidin-4-yl)oxy)phenyl)methanone hydrochloride] gave an EC50 of 200 to 1000 nM. `CCN1CCC(Oc2cc(F)ccc2C(=O)N2Cc3nn4c(C)c(Cl)c(C)nc4c3C2)CC1` [Example 76, (6-Chloro-5,7-dimethyl-1H,3H-2,4,7a,8-tetraaza-cyclopenta[a]inden-2-yl)-[2-(1-ethyl-piperidin-4-yloxy)-4-fluoro-phenyl]-methanone] showed an EC50 of less than 200 nM. In the case of `Cc1nc2c3c(nn2c(C)c1Cl)CN(C(=O)c1ccc(F)cc1OC1CC(N(C)C)C1)C3` (stereo not shown) [Example 71, (6-Chloro-5,7-dimethyl-1H,3H-2,4,7a,8-tetraaza-cyclopenta[a]inden-2-yl)-[2-(3-dimethylamino-cyclobutoxy)-4-fluoro-phenyl]-methanone], the EC50 is reported as 200 to 1000 nM. With `Cc1nc2c3c(nn2c(C)c1Cl)CN(C(=O)c1ccc(F)cc1OCc1cccnc1)C3` [Example 19, (6-Chloro-5,7-dimethyl-1H,3H-2,4,7a,8-tetraaza-cyclopenta[a]inden-2-yl)-[4-fluoro-2-(pyridin-3-ylmethoxy)-phenyl]-methanone] the EC50 was 1000 to 3000 nM. `Cc1nc2c3c(nn2c(C)c1Cl)CN(C(=O)c1ccccc1O[C@H]1CCCC[C@@H]1O)C3` (racemic) [Example 17, (anti)-(3-chloro-2,4-dimethyl-7H-pyrrolo[3′,4′:3,4]pyrazolo[1,5-a]pyrimidin-8(9H)-yl)(2-((2-hydroxycyclohexyl)oxy)phenyl)methanone] gave an EC50 of 1000 to 3000 nM. `Cc1nc2c3c(nn2c(C)c1Cl)CN(C(=O)c1ccc(F)cc1OCCN1CC[C@@H](F)C1)C3` [Example 62, (6-Chloro-5,7-dimethyl-1H,3H-2,4,7a,8-tetraaza-cyclopenta[a]inden-2-yl)-{4-fluoro-2-[2-((R)-3-fluoro-pyrrolidin-1-yl)-ethoxy]-phenyl}-methanone] showed an EC50 of 200 to 1000 nM. With `O=C(c1ccc(F)cc1O[C@H]1C[C@H]2CC[C@@H](C1)N2CC(F)F)N1Cc2nn3cc(Cl)cnc3c2C1` [Example 65, (3-chloro-7H-pyrrolo[3′,4′:3,4]pyrazolo[1,5-a]pyrimidin-8(9H)-yl)(2-{[(3-endo)-8-(2,2-difluoroethyl)-8-azabicyclo[3.2.1]oct-3-yl]oxy}-4-fluorophenyl)methanone] the EC50 was 200 to 1000 nM. With `Cc1nc2c3c(nn2c(C)c1Cl)CN(C(=O)c1ccc(F)cc1O[C@H]1CCNC[C@@H]1O)C3` (single isomer, unassigned) [Example 70, (3-chloro-2,4-dimethyl-7H-pyrrolo[3′,4′:3,4]pyrazolo[1,5-a]pyrimidin-8(9H)-yl)(4-fluoro-2-(((3S,4S)-3-hydroxypiperidin-4-yl)oxy)phenyl)methanone hydrochloride or (3-chloro-2,4-dimethyl-7H-pyrrolo[3′,4′:3,4]pyrazolo[1,5-a]pyrimidin-8(9H)-yl)(4-fluoro-2-(((3R,4R)-3-hydroxypiperidin-4-yl)oxy)phenyl)methanone hydrochloride] the EC50 was 200 to 1000 nM. For `Cc1nc2c3c(nn2c(C)c1Cl)CN(C(=O)c1ccccc1O[C@H]1CNC[C@H]1F)C3` (racemic) [Example 25, (syn)-(6-Chloro-5,7-dimethyl-1H,3H-2,4,7a,8-tetraaza-cyclopenta[a]inden-2-yl)-[2-(4-fluoro-pyrrolidin-3-yloxy)-phenyl]-methanone], the EC50 was 200 to 1000 nM. `Cc1nc2c3c(nn2c(C)c1Cl)CN(C(=O)c1ccc(F)cc1OC1CC(N)C1)C3` (stereo not shown) [Example 61, [2-(3-Amino-cyclobutoxy)-4-fluoro-phenyl]-(6-chloro-5,7-dimethyl-1H,3H-2,4,7a,8-tetraaza-cyclopenta[a]inden-2-yl)-methanone, hydrochloride] was tested, and the EC50 was less than 200 nM. In the case of `Cc1nc2c3c(nn2c(C)c1Cl)CN(C(=O)c1ccccc1O[C@H]1CCC[C@@H]1O)C3` (racemic) [Example 8, (anti)-(6-Chloro-5,7-dimethyl-1H,3H-2,4,7a,8-tetraaza-cyclopenta[a]inden-2-yl)-[2-(2-hydroxy-cyclopentyloxy)-phenyl]-methanone], the EC50 is reported as 200 to 1000 nM. Compound `Cc1cncc(CCOc2cc(F)ccc2C(=O)N2Cc3nn4c(C)c(Cl)c(C)nc4c3C2)c1` [Example 67, (3-chloro-2,4-dimethyl-7H-pyrrolo[3′,4′:3,4]pyrazolo[1,5-a]pyrimidin-8(9H)-yl)(4-fluoro-2-(2-(5-methylpyridin-3-yl)ethoxy)phenyl)methanone] has an EC50 of 200 to 1000 nM. In the case of `Cc1nc2c3c(nn2c(C)c1Cl)CN(C(=O)c1ccc(F)cc1O[C@H]1CC[C@@H](O)CC1)C3` (single isomer, unassigned) [Example 49, (syn)-(6-Chloro-5,7-dimethyl-1H,3H-2,4,7a,8-tetraaza-cvclopenta[a]inden-2-yl)-[4-fluoro-2-(4-hydroxy-cyclohexyloxy)-phenyl]-methanone], the EC50 is reported as 200 to 1000 nM. For `Cc1nc2c3c(nn2c(C)c1Cl)CN(C(=O)c1ccc(F)cc1OC1CN(CCO)C1)C3` [Example 30, (3-chloro-2,4-dimethyl-7H-pyrrolo[3′,4′:3,4]pyrazolo[1,5-a]pyrimidin-8(9H)-yl)(4-fluoro-2-((1-(2-hydroxyethyl)azetidin-3-yl)oxy)phenyl)methanone], the EC50 was 200 to 1000 nM. `Cc1nc2c3c(nn2c(C)c1Cl)C(CO)N(C(=O)c1ccccc1OC1CCN(C)CC1)C3` (stereo not shown) [Example 23, (6-Chloro-1-hydroxymethyl-5,7-dimethyl-1H,3H-2,4,7a,8-tetraaza-cyclopenta[a]inden-2yl)-[2-(1-methyl-piperidin-4-yloxy)-phenyl]-methanone] gave an EC50 of 1000 to 3000 nM. In the case of `Cc1nc2c3c(nn2c(C)c1Cl)CN(C(=O)c1ccc(F)cc1O[C@H]1CCNC[C@@H]1F)C3` (racemic) [Example 1], the EC50 is reported as less than 200 nM. Work on `Cc1nc2c3c(nn2c(C)c1Cl)CN(C(=O)c1ccc(F)cc1OCCN1CCCC1)C3` [Example 16, (3-Chloro-2,4-dimethyl-7H-pyrrolo[3′,4′:3,4]pyrazolo[1,5-a]pyrimidin-8(9H)-yl)(4-fluoro-2-(2-pyrrolidinoethoxy)phenyl)methanone] yielded an EC50 of less than 200 nM. Work on `O=C(c1ccc(F)cc1OC1CCN(CCF)CC1)N1Cc2nn3cc(Cl)cnc3c2C1` [Example 34] yielded an EC50 of 200 to 1000 nM. In the case of `Cc1nc2c3c(nn2c(C)c1Cl)CN(C(=O)c1ccc(F)cc1OCCN1CCOCC1)C3` [Example 15, (3-Chloro-2,4-dimethyl-7H-pyrrolo[3′,4′:3,4]pyrazolo[1,5-a]pyrimidin-8(9H)-yl)(4-fluoro-2-(2-morpholinoethoxy)phenyl)methanone], the EC50 is reported as 1000 to 3000 nM. “(anti)-(6-Chloro-5-ethyl-7-methyl-1H,3H-2,4,7a,8-tetraaza-cyclopenta[a]inden-2-yl)-[2-(4-hydroxy-pyrrolidin-3-yl oxy)-phenyl]-methanone or (anti)-(6-Chloro-5-methyl-7-ethyl-1H,3H-2,4,7a,8-tetraaza-cyclopenta[a]inden-2-yl)-[2-(4-hydroxy-pyrrolidin-3-yl oxy)-phenyl]-methanone [Example 10]” showed an EC50 of 200 to 1000 nM. `CCc1nc2c3c(nn2c(C)c1Cl)CN(C(=O)c1ccccc1O[C@@H]1CCC[C@H]1O)C3` [Example 9, (anti)-(6-Chloro-5-ethyl-7-methyl-1H,3H-2,4,7a,8-tetraaza-cyclopenta[a]inden-2-yl)-[2-(2-hydroxy-cyclopentyloxy)-phenyl]-methanone or (anti)-(6-Chloro-5-methyl-7-ethyl-1H,3H-2,4,7a,8-tetraaza-cyclopenta[a]inden-2-yl)-[2-(2-hydroxy-cyclopentyloxy)-phenyl]-methanone] was tested, and the EC50 was 1000 to 3000 nM. For `Cc1nc2c3c(nn2c(C)c1Cl)CN(C(=O)c1ccc(C#N)cc1OCCN(C)C)C3` [Example 14, 4-(3-chloro-2,4-dimethyl-8,9-dihydro-7H -pyrrolo[3′,4′:3,4]pyrazolo[1,5-a]pyrimidine-8-carbonyl)-3-(2-(dimethylamino)ethoxy)benzonitrile], the EC50 was 200 to 1000 nM.
